The values below come from patent US9828375B2, “4-position substituted pyrazolopyrimidine derivative, and use thereof in drug preparation” (Guangxi Wuzhou Pharmaceuticals (Group) Co., Ltd., priority 2012, dated 2017).

Assay [1] has as its system human malignant melanoma cell line A875. The experiment in a line: In vitro tumor cell proliferation inhibition (MTT): A875. Type of assay: cell-based. The source says:
(§1) The purpose of the experiment was to test the inhibition activity of the compounds of the invention for in vitro human tumor cell proliferation by the methyl thiazolyl tetrazolium (MTT) colorimetry.
(§2) Main reagents: RPMI-1640, fetal bovine serum, pancreatin, etc. were purchased from Gibco BRL Company (Invitrogen Corporation, USA) and IMDM medium that was purchased from American Type Culture Collection (ATCC). Methyl thiazolyl tetrazolium (MTT) and dimethyl sulfoxide (DMSO) were products from Sigma Company (USA). Pyrazolopyrimidine derivatives were composed by the inventor. During in vitro experiment, 100% DMSO was prepared into 10 mM storage solution, the solution was stored in a refrigerator at −20° C. for future use, and was diluted to the required concentration with complete culture solution before use.
(§3) Cell line and culture: Human leukemia cell line MV4-11, Jurkat, K562, human thyrophyma cell line TT, human gastric carcinoma cell line MKN-45, human malignant melanoma cell lines A375 and A875, human pancreatic carcinoma cell line panc-1, human cervical carcinoma cell line HELA, human colorectal carcinoma cell line HCT116, etc. were purchased from American type culture collection and were preserved by this laboratory. All leukemia cell lines (except MV4-11), gastric carcinoma cell lines and thyrophyma cell lines were cultured in RPMI-1640 complete medium containing 10% fetal bovine serum, 100 U/mL penicillin and 100 μg/mL streptomycin at 37° C. in 5% CO2. The remaining cell lines were cultured in DMEM complete medium containing 10% fetal bovine serum (containing 20% MV4-11 cell), 100 U/mL penicillin and 100 µg/mL streptomycin at 37° C. in 5% CO2.
(§4) Cell suspension with cell concentration of 1-2×10^4/mL was adjusted with the complete cell medium and inoculated in a 96-well plate, with each well filled with 200 μl cell suspension that was cultured overnight. On the next day, supernatant was sucked and abandoned (supernatant was sucked upon centrifugation of suspension cells), and then cells were processed with test compounds at gradient concentrations respectively. Meanwhile, a negative control group free from drug and a solvent control group with equal volume were set, and the DMSO concentration was 0.1%. Each dose group was provided with three wells and cultured at 37° C. in 5% CO2. After 72 hours, 20 μl 5 mg/mL MTT reagent was added to each well, and cultured for another 2 to 4 hours, the supernatant was abandoned; 150 μL DMSO was added to each well again, vibrated and mixed evenly for 15 minutes; the absorbance (A) values (proportional to living cell amount) were determined with a microplate reader (λ=570 nm) and averaged. […] Experiment was repeated for 3 times at least. Experimental data were expressed with means, data statistics were tested by t, and P<0.05 means that difference has a statistical significance. The cell proliferation inhibition effects of all compounds as follows are expressed by IC50 or inhibition rate.

Assay [2] deals with human leukemia cell line K562. The experiment in a line: In vitro tumor cell proliferation inhibition (MTT): K562. Type of assay: cell-based.
Excerpt: as §1, §2, §3, §4

For the next assay, the target named is PDGFRα (Homo sapiens, UniProt P16234). The experiment in a line: Kinase inhibition activity test, isotope labeling: PDGFRα. Type of assay: biochemical. The following applies: for Activity inhibition rate PDGFRα (h) / inhibition at 10 µM: test compound at a concentration of 10 μM; for inhibition at 10 µM: read-out: Activity inhibition rate PDGFRα (h); for IC50: ATP 120 μM, read-out: PDGFRα IC50 value (inhibitory activity value). The protocol:
(§5) The purpose of this experiment was to test the inhibitory activity of the compound of the invention for in vitro kinase with the isotope labeling method (the γ phosphate group on ATP was labeled). In this experiment, the in vitro activity inhibition of such kinases as FLT3, VEGFR2, FLT1, FLT4, RET, c-RAF, B-RAF, c-KIT, PDGFα, PDGFβ, FGFR2, FGFR1, EphA2, EphB2, SRC, ABL, ALK and Met was tested respectively. Staurosporine was reference molecule (or referred to as positive control). The kinase inhibition activity of the test compound was expressed by half-inhibitory concentration (IC50) or the kinase activity inhibition rate of the test compound at a concentration of 10 μM. The IC50 value could be obtained by calculating the kinase activity inhibition rate of the test compound at different concentrations.
(§6) 20 mM 3-(N-morpholinyl)propanesulfonic acid (MOPS); 1 mM ethylenediaminetetraacetic acid (EDTA), 0.01% Brij 35 (Brij-35), 5% glycerol, 0.1% mercaptoethanol, 1 mg/mL bovine serum albumin (BSA), 10 mM manganous dichloride solution (MnCl2), 0.1 mg/mL glutamic acid/tyrosine (4:1) polypeptide (poly(Glu, Tyr)4:1), 50 μM EAIYAAPFAKKK (substrate of FLT3), 0.33 mg/mL myelin basic protein (substrate of VEGFR2), 250 μM KKKSPGEYVNIEFG (substrate of FLT1(h)), 500 μM GGEEEEYFELVKKKK (substrate of FLT4(h)), 250 μM KKKSPGEYVNIEFG (substrate of RET), 0.66 mg/mL myelin basic protein (substrate of C-RAF), 250 μM GGMEDIYFEFMGGKKK (substrate of c-Kit), 250 μM GGMEDIYFEFMGGKKK (substrate of PDGFα), 250 μM KKKSPGEYVNIEFG (substrate of FGFR1), […] GGEEEEYFELVKKKK (substrate of SRC), 50 μM EAIYAAPFAKKK (substrate of ABL), 250 μM KKKSPGEYVNIEFG (substrate of ALK), 250 μM KKKSPGEYVNIEFG (substrate of Met(h)), 10 mM magnesium acetate and γ-^33 P-ATP solution, stop buffer (3% phosphate buffer), washing buffer (75 mM phosphate solution), methanol, Filtermat A membrane, FLT3, VEGFR2, FLT3, VEGFR2, FLT1, FLT4, RET, c-RAF, B-RAF, c-KIT, PDGFRα, PDGFRβ, FGFR2, FGFR1, EphA2, EphB2, SRC, ABL, ALK, Met and other kinases, and the test compounds.
(§7) Buffers (8 mM MOPS with pH value of 7.0, 0.2 mM EDTA and 10 mM MnCl2), (5-10 mU) kinases to be tested (FLT3, VEGFR2, FLT1, FLT4, RET, c-RAF, B-RAF, c-KIT, PDGFRα, PDGFRβ, FGFR2, FGFR1, EphA2, EphB2, SRC, ABL, ALK and Met), substrates of kinases to be tested (refer to experimental materials), 10 mM magnesium acetate and γ-^33 P-ATP solution, and test compounds at different concentrations were added to a reaction tube orderly. […] Reaction was terminated with 5 μL 3% phosphate buffer finally, and 10 μL reaction solution was titrated to the Filtermat A membrane; solution was washed for 3 times with 75 mM phosphate solution with each time lasting 5 minutes, and then washed once with methanol. Finally, the Filtermat A membrane was dried, and scintillation counting was performed on the membrane, with scintillation count reflecting the phosphorylation degree of the substrates, so that the activity inhibition of kinase could be characterized.

The target of the next assay is c-KIT (Homo sapiens, UniProt P10721). The experiment in a line: Kinase inhibition activity test, isotope labeling: c-KIT. Type of assay: biochemical. The conditions noted are these: for Activity inhibition rate c-Kit (h) / inhibition at 10 µM: test compound at a concentration of 10 μM; for inhibition at 10 µM: read-out: Activity inhibition rate c-Kit (h); for IC50: ATP 200 μM, read-out: c-KIT IC50 value (inhibitory activity value). The method, then:
as §5, §6, §7

For another assay, the target named is VEGFR2 (Homo sapiens, UniProt P35968). The experiment in a line: Kinase inhibition activity test, isotope labeling (γ-33P-ATP): VEGFR2. The following applies: for IC50: ATP 90 μM, read-out: VEGFR2 IC50 value (inhibitory activity value); for Activity inhibition rate VEGFR2 (h) / inhibition at 10 µM: test compound at a concentration of 10 μM; for inhibition at 10 µM: read-out: Activity inhibition rate VEGFR2 (h). Type of assay: biochemical. The protocol:
as §5, §6, §7

Chain of PDGFRα (P16234 24-1089): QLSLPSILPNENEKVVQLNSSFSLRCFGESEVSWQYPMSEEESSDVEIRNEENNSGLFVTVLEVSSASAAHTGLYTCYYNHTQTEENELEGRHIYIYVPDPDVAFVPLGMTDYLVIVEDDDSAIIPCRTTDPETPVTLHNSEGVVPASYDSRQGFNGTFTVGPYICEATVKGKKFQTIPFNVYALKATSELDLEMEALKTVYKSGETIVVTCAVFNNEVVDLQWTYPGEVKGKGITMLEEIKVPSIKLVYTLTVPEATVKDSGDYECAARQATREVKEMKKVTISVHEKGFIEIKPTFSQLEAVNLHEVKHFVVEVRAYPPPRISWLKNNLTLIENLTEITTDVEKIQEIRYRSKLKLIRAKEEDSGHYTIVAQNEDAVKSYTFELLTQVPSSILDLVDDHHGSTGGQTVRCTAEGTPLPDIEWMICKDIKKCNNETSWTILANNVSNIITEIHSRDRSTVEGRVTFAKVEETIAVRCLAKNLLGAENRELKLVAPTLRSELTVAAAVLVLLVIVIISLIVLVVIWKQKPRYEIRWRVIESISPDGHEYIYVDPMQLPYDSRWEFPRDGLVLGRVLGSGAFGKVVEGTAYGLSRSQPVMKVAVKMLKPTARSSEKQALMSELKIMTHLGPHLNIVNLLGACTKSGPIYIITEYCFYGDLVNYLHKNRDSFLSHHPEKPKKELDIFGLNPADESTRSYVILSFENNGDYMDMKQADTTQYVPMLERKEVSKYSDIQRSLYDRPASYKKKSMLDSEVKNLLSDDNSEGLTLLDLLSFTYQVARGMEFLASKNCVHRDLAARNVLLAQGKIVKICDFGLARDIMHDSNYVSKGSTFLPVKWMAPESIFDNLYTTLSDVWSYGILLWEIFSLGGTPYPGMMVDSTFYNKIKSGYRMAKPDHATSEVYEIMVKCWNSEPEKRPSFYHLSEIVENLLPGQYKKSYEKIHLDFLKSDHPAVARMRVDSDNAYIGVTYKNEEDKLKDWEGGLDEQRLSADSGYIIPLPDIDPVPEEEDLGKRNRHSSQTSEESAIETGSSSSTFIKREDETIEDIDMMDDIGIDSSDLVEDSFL
Chain of VEGFR2 (P35968 20-1356): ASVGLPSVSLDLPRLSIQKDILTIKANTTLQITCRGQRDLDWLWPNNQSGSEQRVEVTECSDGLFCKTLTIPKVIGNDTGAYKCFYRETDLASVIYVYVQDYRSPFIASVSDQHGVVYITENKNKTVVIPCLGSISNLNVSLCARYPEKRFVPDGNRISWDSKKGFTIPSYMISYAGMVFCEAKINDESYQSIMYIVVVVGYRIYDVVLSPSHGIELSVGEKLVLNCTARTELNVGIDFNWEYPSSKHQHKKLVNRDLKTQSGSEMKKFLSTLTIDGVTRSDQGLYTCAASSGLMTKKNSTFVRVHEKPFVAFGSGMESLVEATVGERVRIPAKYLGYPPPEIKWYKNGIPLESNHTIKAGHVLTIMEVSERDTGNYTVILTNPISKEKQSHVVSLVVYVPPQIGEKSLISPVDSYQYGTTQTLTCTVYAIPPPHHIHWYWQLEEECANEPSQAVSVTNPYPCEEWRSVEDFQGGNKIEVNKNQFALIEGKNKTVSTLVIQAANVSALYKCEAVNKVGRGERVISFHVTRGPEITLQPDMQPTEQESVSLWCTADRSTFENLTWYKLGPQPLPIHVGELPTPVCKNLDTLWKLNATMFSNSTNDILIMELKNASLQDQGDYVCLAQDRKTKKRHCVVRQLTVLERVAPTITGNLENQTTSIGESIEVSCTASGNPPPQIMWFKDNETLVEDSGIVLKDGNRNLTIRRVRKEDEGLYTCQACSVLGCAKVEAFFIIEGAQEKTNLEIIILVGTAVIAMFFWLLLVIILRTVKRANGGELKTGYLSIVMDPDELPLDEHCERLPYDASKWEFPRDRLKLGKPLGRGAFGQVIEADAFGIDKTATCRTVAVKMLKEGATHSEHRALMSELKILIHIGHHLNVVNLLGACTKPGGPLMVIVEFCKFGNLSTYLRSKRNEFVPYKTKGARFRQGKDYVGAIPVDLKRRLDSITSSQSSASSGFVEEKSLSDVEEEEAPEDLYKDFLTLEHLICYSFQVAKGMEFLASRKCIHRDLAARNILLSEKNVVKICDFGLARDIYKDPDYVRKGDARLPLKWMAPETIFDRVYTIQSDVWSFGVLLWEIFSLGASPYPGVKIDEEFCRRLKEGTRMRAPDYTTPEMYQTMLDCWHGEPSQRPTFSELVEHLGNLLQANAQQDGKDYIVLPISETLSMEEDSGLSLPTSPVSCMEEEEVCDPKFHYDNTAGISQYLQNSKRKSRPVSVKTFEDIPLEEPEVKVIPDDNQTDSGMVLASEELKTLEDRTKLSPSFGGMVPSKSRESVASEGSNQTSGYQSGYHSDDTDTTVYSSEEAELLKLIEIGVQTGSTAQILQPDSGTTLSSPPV
Chain of c-KIT (P10721 26-976): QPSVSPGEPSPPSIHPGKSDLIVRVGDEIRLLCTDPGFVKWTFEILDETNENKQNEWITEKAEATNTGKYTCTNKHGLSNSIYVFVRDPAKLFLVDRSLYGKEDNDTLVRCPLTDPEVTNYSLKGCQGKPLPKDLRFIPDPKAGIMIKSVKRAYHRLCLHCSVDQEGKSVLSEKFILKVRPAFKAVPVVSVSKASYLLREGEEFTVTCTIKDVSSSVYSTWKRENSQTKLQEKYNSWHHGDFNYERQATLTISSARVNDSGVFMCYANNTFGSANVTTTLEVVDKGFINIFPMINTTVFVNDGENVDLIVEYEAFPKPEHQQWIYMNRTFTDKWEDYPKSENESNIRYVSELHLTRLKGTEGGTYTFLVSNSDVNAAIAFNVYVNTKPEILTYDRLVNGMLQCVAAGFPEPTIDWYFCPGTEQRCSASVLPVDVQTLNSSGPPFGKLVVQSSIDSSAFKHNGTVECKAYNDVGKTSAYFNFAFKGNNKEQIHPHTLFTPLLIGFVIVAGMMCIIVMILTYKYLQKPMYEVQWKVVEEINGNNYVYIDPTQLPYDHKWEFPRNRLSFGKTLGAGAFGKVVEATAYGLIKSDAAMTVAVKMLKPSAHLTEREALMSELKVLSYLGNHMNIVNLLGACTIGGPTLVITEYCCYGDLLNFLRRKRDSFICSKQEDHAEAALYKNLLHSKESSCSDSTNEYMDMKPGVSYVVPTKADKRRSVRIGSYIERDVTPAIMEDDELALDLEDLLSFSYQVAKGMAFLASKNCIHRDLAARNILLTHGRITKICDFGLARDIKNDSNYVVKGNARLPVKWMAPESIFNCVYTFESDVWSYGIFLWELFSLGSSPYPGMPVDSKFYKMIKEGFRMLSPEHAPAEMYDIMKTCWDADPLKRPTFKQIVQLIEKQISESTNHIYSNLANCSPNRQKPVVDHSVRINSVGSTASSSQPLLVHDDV

For the compound “1-(4-((1H-pyrazolopyrimidine-4-yl)oxy)-3-fluorophenyl)-3-(3-trifluoromethoxy)phenyl)urea [4a-8]”, the IC50 in assay [1] (72 hours) is 6970 nM; in assay [2] (72 hours) it was less than 50000 nM; at VEGFR2 it was 29 nM. Further, the “Activity inhibition rate PDGFRα (h)” value at PDGFRα is given as 64%. In addition, the “Activity inhibition rate c-Kit (h)” value at c-KIT came out at 95%. Further, the “Activity inhibition rate VEGFR2 (h)” value on VEGFR2 was 100%.
As for “1-(4-((1H-pyrazolopyrimidine-4-yl)oxy)phenyl)-3-(methylcyclohexyl)urea [4a-20]”, the IC50 in assay [1] (72 hours) and in assay [2] (72 hours) was less than 50000 nM each time. Also, the “Activity inhibition rate PDGFRα (h)” value at PDGFRα is 93%. The “Activity inhibition rate c-Kit (h)” value at c-KIT was 98%. Also, on VEGFR2, the “Activity inhibition rate VEGFR2 (h)” value stood at 64%.
Consider `O=C(Nc1ccc(Oc2ncnc3[nH]ncc23)cc1)Nc1ccc(C(F)(F)F)cc1` [4a-1], for which the IC50 in assay [1] (Homo sapiens, A875, 72 hours) was 3000 to 10000 nM; in assay [2] (Homo sapiens, K562, 72 hours), less than 50000 nM; at VEGFR2 it was 30 nM. Besides, the inhibition at 10 µM at PDGFRα turned out to be 63%; on c-KIT, 100%; at VEGFR2 it was 100%.
Regarding `O=C(Nc1ccc(Oc2ncnc3[nH]ncc23)cc1)Nc1ccc(Cl)c(C(F)(F)F)c1` [4a-2], the IC50 in assay [1] (72 hours) is 4120 nM; in assay [2] (72 hours) it was less than 50000 nM; at PDGFRα it was 223 nM; on c-KIT it was 507 nM; at VEGFR2 it was 12 nM. For the same compound, the “Activity inhibition rate PDGFRα (h)” value at PDGFRα came out at 93%. Moreover, the “Activity inhibition rate c-Kit (h)” value on c-KIT amounted to 100%. In addition, the “Activity inhibition rate VEGFR2 (h)” value on VEGFR2 is on record as 100%.
As to `O=C(Nc1ccc(Oc2ncnc3[nH]ncc23)cc1)Nc1cccc(C(F)(F)F)c1` [4a-6], the IC50 is 6240 nM in assay [1] (Homo sapiens, A875, 72 hours); less than 50000 nM in assay [2] (Homo sapiens, K562, 72 hours); 322 nM at PDGFRα; 313 nM at c-KIT; 11 nM at VEGFR2. Further, the inhibition at 10 µM came out at 97% at PDGFRα, 100% on c-KIT and 100% at VEGFR2.
With `CC(C)c1cccc(NC(=O)Nc2ccc(Oc3ncnc4[nH]ncc34)c(F)c2)c1` [4a-7, 1-(4-((1H-pyrazolopyrimidine-4-yl)oxy)-3-fluorophenyl)-3-(3-isopropylphenyl)urea], the IC50 in assay [1] (72 hours) is less than 50000 nM; in assay [2] (72 hours) it was less than 50000 nM; on VEGFR2 it was 32 nM. In addition, the “Activity inhibition rate PDGFRα (h)” value on PDGFRα is listed as 89%. Moreover, the “Activity inhibition rate c-Kit (h)” value at c-KIT is listed as 98%. At VEGFR2, the “Activity inhibition rate VEGFR2 (h)” value was 100%.
Turning to `O=C(Nc1ccc(C(F)(F)F)cc1)Nc1ccc(Oc2ncnc3[nH]ncc23)c(F)c1` [4a-9, 1-(4-((1H-pyrazolopyrimidine-4-yl)oxy)-3-fluorophenyl)-3-(4-(trifluoromethyl)phenyl)urea], the IC50 is less than 50000 nM in assay [1] (72 hours), 2700 nM in assay [2] (72 hours) and 19 nM on VEGFR2. Moreover, the “Activity inhibition rate PDGFRα (h)” value on PDGFRα is recorded as 24%. Also, the “Activity inhibition rate c-Kit (h)” value on c-KIT was 29%. The “Activity inhibition rate VEGFR2 (h)” value on VEGFR2 was found to be 100%.
With `O=C(Nc1ccc(Oc2ncnc3[nH]ncc23)c(F)c1)Nc1ccc(Cl)c(C(F)(F)F)c1` [4a-10, 1-(4-((1H-pyrazolopyrimidine-4-yl)oxy)-3-fluorophenyl)-3-(4-chloro-3-(trifluoromethyl)phenyl)urea], the IC50 in assay [1] (72 hours) was less than 50000 nM; in assay [2] (72 hours) it was less than 50000 nM; on VEGFR2, 21 nM. The “Activity inhibition rate PDGFRα (h)” value at PDGFRα worked out at 52%. At c-KIT, the “Activity inhibition rate c-Kit (h)” value is recorded as 49%. Besides, the “Activity inhibition rate VEGFR2 (h)” value at VEGFR2 came out at 100%.
`O=C(Nc1ccc(Oc2ncnc3[nH]ncc23)cc1)Nc1cc(C(F)(F)F)cc(C(F)(F)F)c1` [4a-12, 1-(4-((1H-pyrazolopyrimidine-4-yl)oxy)phenyl)-3-(3,5-bis(trifluoromethyl)phenyl)urea]: the IC50 in assay [1] (72 hours) was less than 50000 nM; in assay [2] (72 hours), 9120 nM; on VEGFR2, 24 nM. Besides, the “Activity inhibition rate PDGFRα (h)” value on PDGFRα came to 52%. For the same compound, the “Activity inhibition rate c-Kit (h)” value on c-KIT is 58%. Also, the “Activity inhibition rate VEGFR2 (h)” value at VEGFR2 is given as 100%.
In the case of `O=C(Nc1ccc(Oc2ncnc3[nH]ncc23)cc1)Nc1ccc(N2CCOCC2)cc1` [4a-16, 1-(4-((1H-pyrazolopyrimidine-4-yl)oxy)phenyl)-3-(4-morpholinylphenyl)urea], the IC50 in assay [1] (Homo sapiens, A875, 72 hours) was less than 50000 nM; in assay [2] (Homo sapiens, K562, 72 hours), less than 50000 nM. In addition, the values for the inhibition at 10 µM on c-KIT and at VEGFR2 were 77% and 91%, respectively.
As to `O=C(Nc1ccc(NC(=O)N2C=NC=C3NNC=C32)cc1)Nc1ccc(Cl)c(C(F)(F)F)c1` [4b-5, 1-(4-(1H-pyrazolopyrimidine-4-amido)phenyl)-3-(4-chloro-3-(trifluoromethyl)phenyl)urea], the values for the inhibition at 10 µM at PDGFRα, at c-KIT and on VEGFR2 were greater than 30%, greater than 30% and 97%, respectively.
On to `O=C(Nc1ccc(Sc2ncnc3[nH]ncc23)cc1)Nc1ccc(C(F)(F)F)cc1` [4c-1], for which the IC50 in assay [1] (Homo sapiens, A875, 72 hours) was less than 50000 nM. The inhibition at 10 µM is greater than 50% on PDGFRα, greater than 90% at c-KIT and 100% at VEGFR2.
On to `O=C(Nc1ccc(Sc2ncnc3[nH]ncc23)cc1)Nc1cccc(C(F)(F)F)c1` [4c-2], for which the IC50 in assay [1] (72 hours) is less than 50000 nM. Besides, at PDGFRα, the “Activity inhibition rate PDGFRα (h)” value is recorded as greater than 50%. For the same compound, the “Activity inhibition rate c-Kit (h)” value at c-KIT is listed as greater than 90%. Moreover, the “Activity inhibition rate VEGFR2 (h)” value on VEGFR2 stood at 100%.
